Patent publication US9765105B2, “Macrolide compound” (Pulike Biological Engineering, Inc., priority 2013, dated 2017)

Key:
Test in all cases: in vitro susceptibility, MIC by mini broth dilution
Assay type in all cases: cell-based
Haemophilus parasuis = system: Haemophilus parasuis
Method in brief: (§1)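 NCCLS-based mini broth dilution; inoculum from twice-streaked 35° C/20 h cultures, 1:200 in broth; compound two-fold series in DMSO, 11 steps, duplicates.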

[1] = system: Pasteurella multocida CVCC399; settings: strain CVCC399
Method in brief: as §1

[2] = system: Streptococcus equines CVCC556; settings: strain CVCC556
Method in brief: as §1

[3] = system: Actinobacillus pleuropneumoniae CVCC262; settings: strain CVCC262
Method in brief: as §1

[4] = system: Staphylococcus aureus CVCC26003; settings: strain CVCC26003
Method in brief: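 S. aureus CVCC26003 was revived and subcultured twice, 20 h each at 35° C, on solid medium, then diluted 1:200 in CAMHB liquid medium. Compounds received an 11-step two-fold DMSO dilution in parallel duplicate rows. MIC was read by mini broth dilution per NCCLS guidance.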

| Compound | MIC values, Haemophilus parasuis (Haemophilus parasuis) [ug/mi] | MIC values, Pasteurella multocida CVCC399 [1] [ug/mi] | MIC values, Streptococcus equines CVCC556 [2] [ug/mi] | MIC values, Actinobacillus pleuropneumoniae CVCC262 [3] [ug/mi] | MIC values, Staphylococcus aureus CVCC26003 [4] [ug/mi] |
| --- | --- | --- | --- | --- | --- |
| CCCN1C[C@H](C)[C@@H](O)[C@](C)(O)[C@@H](CC)OC(=O)[C@H](C)[C@@H](O[C@H]2C[C@@](C)(OC)[C@](O)(CNCc3cnc(C)cn3)[C@H](C)O2)[C@H](C)[C@@H](O[C@@H]2O[C@H](C)C[C@H](N(C)C)[C@H]2O)[C@](C)(O)C[C@H]1C [syzx-165] | 0.25 | 1 | 0.25 | 0.25 | 0.25 |
| CCCN1C[C@H](C)[C@@H](O)[C@](C)(O)[C@@H](CC)OC(=O)[C@H](C)[C@@H](O[C@H]2C[C@@](C)(OC)[C@](O)(CNCC3CCCCC3)[C@H](C)O2)[C@H](C)[C@@H](O[C@@H]2O[C@H](C)C[C@H](N(C)C)[C@H]2O)[C@](C)(O)C[C@H]1C [syzx-167] | 2 | 4 | 0.25 | 2 | 2 |
| CCCN1C[C@H](C)[C@@H](O)[C@](C)(O)[C@@H](CC)OC(=O)[C@H](C)[C@@H](O[C@H]2C[C@@](C)(OC)[C@](O)(CNc3ccccc3F)[C@H](C)O2)[C@H](C)[C@@H](O[C@@H]2O[C@H](C)C[C@H](N(C)C)[C@H]2O)[C@](C)(O)C[C@H]1C [syzx-168] | 0.25 | 1 | 0.25 | 0.25 | 0.25 |
| CCCN1C[C@H](C)[C@@H](O)[C@](C)(O)[C@@H](CC)OC(=O)[C@H](C)[C@@H](O[C@H]2C[C@@](C)(OC)[C@](O)(CNCCCN3CCOCC3)[C@H](C)O2)[C@H](C)[C@@H](O[C@@H]2O[C@H](C)C[C@H](N(C)C)[C@H]2O)[C@](C)(O)C[C@H]1C [syzx-169] | 0.25 | 0.5 | 0.25 | 0.25 | 0.25 |
| CCCN1CC(C)C(O)C(C)(O)C(CC)OC(=O)C(C)C(OC2CC(C)(OC)C(O)(CNNc3ccccc3)C(C)O2)C(C)C(OC2OC(C)CC(N(C)C)C2O)C(C)(O)CC1C (centres unmarked) [syzx-173] | 1 | 4 | 0.25 | 1 | 2 |
| CCCN1C[C@H](C)[C@@H](O)[C@](C)(O)[C@@H](CC)OC(=O)[C@H](C)[C@@H](O[C@H]2C[C@@](C)(OC)[C@](O)(CNCCc3c[nH]c4ccccc34)[C@H](C)O2)[C@H](C)[C@@H](O[C@@H]2O[C@H](C)C[C@H](N(C)C)[C@H]2O)[C@](C)(O)C[C@H]1C [syzx-174] | 2 | 8 | 0.25 | 4 | 4 |
| CCCN1C[C@H](C)[C@@H](O)[C@](C)(O)[C@@H](CC)OC(=O)[C@H](C)[C@@H](O[C@H]2C[C@@](C)(OC)[C@](O)(CNCCCCl)[C@H](C)O2)[C@H](C)[C@@H](O[C@@H]2O[C@H](C)C[C@H](N(C)C)[C@H]2O)[C@](C)(O)C[C@H]1C [syzx-175] | 0.25 | 0.5 | 0.5 | 0.25 | 0.5 |
| CCCN1C[C@H](C)[C@@H](O)[C@](C)(O)[C@@H](CC)OC(=O)[C@H](C)[C@@H](O[C@H]2C[C@@](C)(OC)[C@](O)(CNc3cc(OC)cc(OC)c3)[C@H](C)O2)[C@H](C)[C@@H](O[C@@H]2O[C@H](C)C[C@H](N(C)C)[C@H]2O)[C@](C)(O)C[C@H]1C [syzx-176] | 0.5 | 2 | 0.25 | 0.25 | 0.5 |
| CCCN1C[C@H](C)[C@@H](O)[C@](C)(O)[C@@H](CC)OC(=O)[C@H](C)[C@@H](O[C@H]2C[C@@](C)(OC)[C@](O)(CNc3ccc(C)o3)[C@H](C)O2)[C@H](C)[C@@H](O[C@@H]2O[C@H](C)C[C@H](N(C)C)[C@H]2O)[C@](C)(O)C[C@H]1C [syzx-178] | 4 | 4 | 0.5 | 2 | 4 |
| CCCN1CC(C)C(O)C(C)(O)C(CC)OC(=O)C(C)C(OC2CC(C)(OC)C(O)(CNNc3ccc(F)cc3)C(C)O2)C(C)C(OC2OC(C)CC(N(C)C)C2O)C(C)(O)CC1C (centres unmarked) [syzx-181] | 0.25 | 1 | 0.25 | 0.5 | 0.25 |
| CCCN1C[C@H](C)[C@@H](O)[C@](C)(O)[C@@H](CC)OC(=O)[C@H](C)[C@@H](O[C@H]2C[C@@](C)(OC)[C@](O)(CNOCc3ccccc3)[C@H](C)O2)[C@H](C)[C@@H](O[C@@H]2O[C@H](C)C[C@H](N(C)C)[C@H]2O)[C@](C)(O)C[C@H]1C [syzx-182] | 0.5 | 4 | 0.5 | 0.5 | 1 |
| CCCN1C[C@H](C)[C@@H](O)[C@](C)(O)[C@@H](CC)OC(=O)[C@H](C)[C@@H](O[C@H]2C[C@@](C)(OC)[C@](O)(CNc3ccc(OC)cc3)[C@H](C)O2)[C@H](C)[C@@H](O[C@@H]2O[C@H](C)C[C@H](N(C)C)[C@H]2O)[C@](C)(O)C[C@H]1C [syzx-183] | 0.25 | 2 | 0.25 | 0.5 | 0.25 |
| CCCN1C[C@H](C)[C@@H](O)[C@](C)(O)[C@@H](CC)OC(=O)[C@H](C)[C@@H](O[C@H]2C[C@@](C)(OC)[C@](O)(CNc3ccc(C)c(C)c3)[C@H](C)O2)[C@H](C)[C@@H](O[C@@H]2O[C@H](C)C[C@H](N(C)C)[C@H]2O)[C@](C)(O)C[C@H]1C [syzx-184] | 2 | 4 | 0.5 | 2 | 2 |
| CCCN1C[C@H](C)[C@@H](O)[C@](C)(O)[C@@H](CC)OC(=O)[C@H](C)[C@@H](O[C@H]2C[C@@](C)(OC)[C@](O)(CNCCCN3CCOCC3)[C@H](C)O2)[C@H](C)[C@@H](O[C@@H]2O[C@H](C)C[C@H](N(C)C)[C@H]2O)[C@](C)(O)C[C@H]1C [syzx-188] | 0.5 | 1 | 0.25 | 0.5 | 0.5 |
| CCCN1CC(C)C(O)C(C)(O)C(CC)OC(=O)C(C)C(OC2CC(C)(OC)C(O)(CNCCN3CCCC3)C(C)O2)C(C)C(OC2OC(C)CC(N(C)C)C2O)C(C)(O)CC1C (centres unmarked) [syzx-190] | 0.25 | 1 | 0.25 | 0.5 | 0.25 |
| CCCN1C[C@H](C)[C@@H](O)[C@](C)(O)[C@@H](CC)OC(=O)[C@H](C)[C@@H](O[C@H]2C[C@@](C)(OC)[C@](O)(CNCCc3ccncc3)[C@H](C)O2)[C@H](C)[C@@H](O[C@@H]2O[C@H](C)C[C@H](N(C)C)[C@H]2O)[C@](C)(O)C[C@H]1C [syzx-191] | 0.5 | 4 | 0.5 | 0.5 | 1 |
